Data published in ChEMBL document CHEMBL1201862, “PubChem BioAssay data set” (2004).
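Assay format: 96-well plates, 48-hour exposure. Abbreviation: GI50, concentration required for 50% inhibition of growth.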 The source made the active and inactive calls. Cut-off read from the data, not from the text of the source: active = GI50 up to about 1.1 µM and inactive = higher.

How the values were obtained:
Assay in all cases: NCI anticancer screen, dose series, 48 h
BT-549 = system: BT-549
NCI-H522 = system: NCI-H522
HL-60 = system: HL-60
MCF7 = system: MCF7
HOP-62 = system: HOP-62
MOLT-4 = system: MOLT-4
SR = system: SR
U-251 = system: U-251
UACC-257 = system: UACC-257
CAKI-1 = system: CAKI-1
HCC 2998 = system: HCC 2998
PC-3 = system: PC-3
OVCAR-8 = system: OVCAR-8
SF-539 = system: SF-539
OVCAR-4 = system: OVCAR-4
786-0 = system: 786-0
OVCAR-3 = system: OVCAR-3
NCI-H460 = system: NCI-H460
Malme-3M = system: Malme-3M
A498 = system: A498
K562 = system: K562
NCI-H23 = system: NCI-H23
SNB-19 = system: SNB-19
DU-145 = system: DU-145
M14 = system: M14
MDA-MB-435 = system: MDA-MB-435
OVCAR-5 = system: OVCAR-5
TK-10 = system: TK-10
SK-OV-3 = system: SK-OV-3
A549 = system: A549
KM12 = system: KM12
SN12C = system: SN12C
HCT-116 = system: HCT-116
UO-31 = system: UO-31
CCRF-CEM = system: CCRF-CEM
EKVX = system: EKVX
SK-MEL-28 = system: SK-MEL-28
SF-268 = system: SF-268
Hs-578T = system: Hs-578T
COLO 205 = system: COLO 205
SNB-75 = system: SNB-75
HCT-15 = system: HCT-15
SW-620 = system: SW-620
IGROV-1 = system: IGROV-1
SK-MEL-2 = system: SK-MEL-2
HT-29 = system: HT-29
SF-295 = system: SF-295
MDA-MB-231 = system: MDA-MB-231
MDA-N = system: MDA-N
ACHN = system: ACHN
SK-MEL-5 = system: SK-MEL-5
NCI/ADR-RES = system: NCI/ADR-RES
LOX IMVI = system: LOX IMVI
RXF 393 = system: RXF 393
HOP-92 = system: HOP-92
T47D = system: T47D
UACC-62 = system: UACC-62
RPMI-8226 = system: RPMI-8226
NCI-H226 = system: NCI-H226

In the case of CCN(C)c1nc(N(C)CC)c2nc(N(C)CC)nc(N(C)CC)c2n1, the GI50 (BT-549) is reported as > 100 µM (inactive), the GI50 (NCI-H522) is reported as > 100 µM (inactive) and the GI50 (HL-60) is reported as > 100 µM (inactive). The GI50 (MCF7) was > 100 µM (inactive), the GI50 (HOP-62) was > 100 µM (inactive) and the GI50 (MOLT-4) was > 100 µM (inactive). The GI50 (SR) was 26.5 µM (inactive), the GI50 (U-251) was > 100 µM (inactive) and the GI50 (UACC-257) was > 100 µM (inactive). For the same molecule, the GI50 (CAKI-1) was > 100 µM (inactive), the GI50 (HCC 2998) was > 100 µM (inactive) and the GI50 (PC-3) was > 100 µM (inactive). For the same molecule, the GI50 (OVCAR-8) was > 100 µM (inactive), the GI50 (SF-539) was > 100 µM (inactive) and the GI50 (OVCAR-4) was > 100 µM (inactive). For the same molecule, the GI50 (786-0) was > 100 µM (inactive), the GI50 (OVCAR-3) was > 100 µM (inactive) and the GI50 (NCI-H460) was > 100 µM (inactive). The GI50 (Malme-3M) was > 100 µM (inactive), the GI50 (A498) was > 100 µM (inactive) and the GI50 (K562) was > 100 µM (inactive). The GI50 (NCI-H23) was > 100 µM (inactive), the GI50 (SNB-19) was > 100 µM (inactive) and the GI50 (DU-145) was > 100 µM (inactive). The GI50 (M14) was > 100 µM (inactive), the GI50 (MDA-MB-435) was > 100 µM (inactive) and the GI50 (OVCAR-5) was > 100 µM (inactive). For the same molecule, the GI50 (TK-10) was > 100 µM (inactive), the GI50 (SK-OV-3) was > 100 µM (inactive) and the GI50 (A549) was > 100 µM (inactive). For the same molecule, the GI50 (KM12) was > 100 µM (inactive), the GI50 (SN12C) was > 100 µM (inactive) and the GI50 (HCT-116) was > 100 µM (inactive). For the same molecule, the GI50 (UO-31) was > 100 µM (inactive), the GI50 (CCRF-CEM) was > 100 µM (inactive) and the GI50 (EKVX) was > 100 µM (inactive). The GI50 (SK-MEL-28) was > 100 µM (inactive), the GI50 (SF-268) was > 100 µM (inactive) and the GI50 (Hs-578T) was > 100 µM (inactive). For the same molecule, the GI50 (COLO 205) was > 100 µM (inactive), the GI50 (SNB-75) was > 100 µM (inactive) and the GI50 (HCT-15) was over 100 µM. For the same molecule, the GI50 (SW-620) was > 100 µM (inactive), the GI50 (IGROV-1) was > 100 µM (inactive) and the GI50 (SK-MEL-2) was > 100 µM (inactive). The GI50 (HT-29) was > 100 µM (inactive), the GI50 (SF-295) was > 100 µM (inactive) and the GI50 (MDA-MB-231) was > 100 µM (inactive). For the same molecule, the GI50 (MDA-N) was > 100 µM (inactive), the GI50 (ACHN) was > 100 µM (inactive) and the GI50 (SK-MEL-5) was > 100 µM (inactive). The GI50 (NCI/ADR-RES) was > 100 µM (inactive), the GI50 (LOX IMVI) was > 100 µM (inactive) and the GI50 (RXF 393) was > 100 µM (inactive). The GI50 (HOP-92) was > 100 µM (inactive), the GI50 (T47D) was > 100 µM (inactive) and the GI50 (UACC-62) was > 100 µM (inactive). The GI50 (RPMI-8226) was > 100 µM (inactive).

For c1ccc2c(c1)nc1n2CNCC1, the GI50 (BT-549) was > 100 µM (inactive), the GI50 (NCI-H522) was 43.1 µM (inactive) and the GI50 (HL-60) was 68.5 µM (inactive). The GI50 (MCF7) was 45.7 µM (inactive), the GI50 (HOP-62) was > 100 µM (inactive) and the GI50 (MOLT-4) was 43.3 µM (inactive). The GI50 (SR) was 29.7 µM (inactive), the GI50 (U-251) was > 100 µM (inactive) and the GI50 (UACC-257) was > 100 µM (inactive). The GI50 (NCI-H226) was > 100 µM (inactive), the GI50 (CAKI-1) was 49 µM (inactive) and the GI50 (HCC 2998) was > 100 µM (inactive). For the same molecule, the GI50 (PC-3) was > 100 µM (inactive), the GI50 (OVCAR-8) was 58.5 µM (inactive) and the GI50 (SF-539) was > 100 µM (inactive). The GI50 (OVCAR-4) was > 100 µM (inactive), the GI50 (786-0) was > 100 µM (inactive) and the GI50 (OVCAR-3) was > 100 µM (inactive). For the same molecule, the GI50 (NCI-H460) was > 100 µM (inactive), the GI50 (Malme-3M) was 63.7 µM (inactive) and the GI50 (A498) was > 100 µM (inactive). The GI50 (NCI-H23) was > 100 µM (inactive), the GI50 (SNB-19) was > 100 µM (inactive) and the GI50 (DU-145) was 43.3 µM (inactive). For the same molecule, the GI50 (M14) was > 100 µM (inactive), the GI50 (MDA-MB-435) was > 100 µM (inactive) and the GI50 (OVCAR-5) was > 100 µM (inactive). For the same molecule, the GI50 (TK-10) was > 100 µM (inactive), the GI50 (SK-OV-3) was > 100 µM (inactive) and the GI50 (A549) was > 100 µM (inactive). For the same molecule, the GI50 (KM12) was > 100 µM (inactive), the GI50 (SN12C) was > 100 µM (inactive) and the GI50 (HCT-116) was 43.2 µM (inactive). For the same molecule, the GI50 (UO-31) was 79.3 µM (inactive), the GI50 (EKVX) was > 100 µM (inactive) and the GI50 (SK-MEL-28) was 48.3 µM (inactive). The GI50 (SF-268) was > 100 µM (inactive), the GI50 (Hs-578T) was > 100 µM (inactive) and the GI50 (COLO 205) was > 100 µM (inactive). For the same molecule, the GI50 (SNB-75) was 90.8 µM (inactive), the GI50 (HCT-15) was 50.2 µM and the GI50 (SW-620) was 34.7 µM (inactive). For the same molecule, the GI50 (IGROV-1) was 94 µM (inactive), the GI50 (SK-MEL-2) was > 100 µM (inactive) and the GI50 (HT-29) was 42.2 µM (inactive). For the same molecule, the GI50 (SF-295) was > 100 µM (inactive), the GI50 (MDA-MB-231) was > 100 µM (inactive) and the GI50 (MDA-N) was > 100 µM (inactive). The GI50 (ACHN) was > 100 µM (inactive), the GI50 (SK-MEL-5) was > 100 µM (inactive) and the GI50 (NCI/ADR-RES) was > 100 µM (inactive). For the same molecule, the GI50 (LOX IMVI) was 24.2 µM (inactive), the GI50 (RXF 393) was 90.8 µM (inactive) and the GI50 (HOP-92) was > 100 µM (inactive). The GI50 (T47D) was 37.2 µM (inactive), the GI50 (UACC-62) was > 100 µM (inactive) and the GI50 (RPMI-8226) was 26.4 µM (inactive).
